Columns and labels:
[1] = Renal clearance in human at 250 […], po measured on day 1; format: ADME, organism-based, Kidney; parameters: route oral; conditions: in vivo, read-out: CL_renal (converted)
[2] = species on record: Homo sapiens; assay: Plasma protein binding in human; conditions: read-out: PPB (converted)
[3] = AUC (0 to last) in human at 500 mg/kg, po measured on day 16; format: ADME, organism-based; parameters: time 0 - last, dose 500 mg/kg, route oral; conditions: plasma
[4] = test system: Streptococcus pneumoniae; assay: Ratio of fAUC (0 to 24 hrs) to MIC90 for Streptococcus pneumoniae; format: functional
[5] = Cmax in human at 1000 […], po measured on day 1; format: ADME, organism-based; parameters: dose 1000 mg/kg, route oral; conditions: in vivo
[6] = Clearance in human assessed as compound recovered in urine at 250 mg/kg, po measured on day 10 up to 24 hrs post dose; format: ADME, organism-based; parameters: dose 250 mg/kg, route oral; conditions: read-out: amount in urine
[7] = AUC (0 to 24 hrs) in human at 1000 […], po measured on day 10; format: ADME, organism-based; parameters: time < 24 hr, dose 1000 mg/kg, route oral; conditions: plasma
[8] = test system: Homo sapiens; assay: Toxicity in human assessed as occurrence of pruritus at 75 […], po administered as single dose; format: organism-based; parameters: route oral; conditions: in vivo
[9] = Cmax in human at 75 […], po measured on day 10; format: ADME, organism-based; parameters: dose 75 mg/kg, route oral; conditions: in vivo
[10] = test system: Homo sapiens; assay: Toxicity in human assessed as occurrence of rashes at 250 […], po administered as single dose; format: organism-based; parameters: route oral; conditions: in vivo
[11] = Oral clearance in human at 500 mg/kg measured on day 1; format: ADME, organism-based; parameters: dose 500 mg/kg; conditions: in vivo
[12] = test system: Homo sapiens; assay: Toxicity in human assessed as incidence of headache at 1000 […], po administered as single dose; format: organism-based; parameters: route oral; conditions: in vivo
[13] = test system: Homo sapiens; assay: Toxicity in human assessed as occurrence of pruritus at 500 […], po administered as single dose; format: organism-based; parameters: route oral; conditions: in vivo
[14] = AUC (0 to last) in human at 1000 […], po measured on day 1; format: ADME, organism-based; parameters: time 0 - last, dose 1000 mg/kg, route oral; conditions: plasma
[15] = AUC (0 to 24 hrs) in human at 75 mg/kg, po measured on day 1; format: ADME, organism-based; parameters: time < 24 hr, dose 75 mg/kg, route oral; conditions: plasma
[16] = Oral clearance in human at 1000 […] measured on day 10; format: ADME, organism-based; parameters: dose 1000 mg/kg; conditions: in vivo
[17] = Tmax in human at 500 […], po measured on day 1; format: ADME, organism-based; parameters: route oral; conditions: in vivo
[18] = Tmax in human at 1000 […], po measured on day 1; format: ADME, organism-based; parameters: route oral; conditions: in vivo
[19] = Oral clearance in human at 500 mg/kg measured on day 16; format: ADME, organism-based; parameters: dose 500 mg/kg; conditions: in vivo
[20] = test system: Homo sapiens; assay: Toxicity in human assessed as occurrence of rashes at 1000 […], po administered as single dose; format: organism-based; parameters: route oral; conditions: in vivo
[21] = AUC (0 to 24 hrs) in human at 750 mg/kg, po measured on day 1; format: ADME, organism-based; parameters: time < 24 hr, dose 750 mg/kg, route oral; conditions: plasma
[22] = AUC (0 to last) in human at 1000 […], po measured on day 10; format: ADME, organism-based; parameters: time 0 - last, dose 1000 mg/kg, route oral; conditions: plasma
[23] = AUC (0 to 24 hrs) in human at 500 mg/kg, po measured on day 1; format: ADME, organism-based; parameters: time < 24 hr, dose 500 mg/kg, route oral; conditions: plasma
[24] = Oral clearance in human at 500 mg/kg measured on day 10; format: ADME, organism-based; parameters: dose 500 mg/kg; conditions: in vivo
[25] = Clearance in human assessed as compound recovered in urine at 250 mg/kg, po measured on day 1 up to 24 hrs post dose; format: ADME, organism-based; parameters: dose 250 mg/kg, route oral; conditions: read-out: amount in urine
[26] = Renal clearance in human at 500 […], po measured on day 1; format: ADME, organism-based, Kidney; parameters: route oral; conditions: in vivo, read-out: CL_renal (converted)
[27] = Clearance in human assessed as compound recovered in urine at 750 mg/kg, po measured on day 10 up to 24 hrs post dose; format: ADME, organism-based; parameters: dose 750 mg/kg, route oral; conditions: read-out: amount in urine
[28] = test system: Homo sapiens; assay: Toxicity in human assessed as occurrence of diarrhea at 750 […], po administered as single dose; format: organism-based; parameters: route oral; conditions: in vivo
[29] = AUC (0 to last) in human at 75 mg/kg, po measured on day 10; format: ADME, organism-based; parameters: time 0 - last, dose 75 mg/kg, route oral; conditions: plasma
[30] = Renal clearance in human at 250 […], po measured on day 10; format: ADME, organism-based, Kidney; parameters: route oral; conditions: in vivo, read-out: CL_renal (converted)
[31] = test system: Homo sapiens; assay: Toxicity in human assessed as occurrence of somnolence at 500 […], po administered as single dose; format: organism-based; parameters: route oral; conditions: in vivo
[32] = Tmax in human at 500 […], po measured on day 10; format: ADME, organism-based; parameters: dose 500 mg/kg, route oral; conditions: in vivo
[33] = Terminal half life in human at 75 […], po measured on day 10; format: ADME, organism-based; parameters: route oral; conditions: in vivo, read-out: beta t1/2 (converted)
[34] = Tmax in human at 75 […], po measured on day 1; format: ADME, organism-based; parameters: route oral; conditions: in vivo
[35] = test system: Homo sapiens; assay: Toxicity in human assessed as occurrence of pollakiuria at 500 […], po administered as single dose; format: organism-based; parameters: route oral; conditions: in vivo
[36] = Oral clearance in human at 750 […] measured on day 10; format: ADME, organism-based; conditions: in vivo
[37] = Cmax in human at 500 […], po measured on day 10; format: ADME, organism-based; parameters: dose 500 mg/kg, route oral; conditions: in vivo
[38] = AUC (0 to last) in human at 250 mg/kg, po measured on day 1; format: ADME, organism-based; parameters: time 0 - last, dose 250 mg/kg, route oral; conditions: plasma
[39] = test system: Homo sapiens; assay: Toxicity in human assessed as occurrence of somnolence at 250 […], po administered as single dose; format: organism-based; parameters: route oral; conditions: in vivo
[40] = Terminal half life in human at 500 […], po measured on day 10; format: ADME, organism-based; parameters: route oral; conditions: in vivo, read-out: beta t1/2 (converted)
[41] = test system: Homo sapiens; assay: Toxicity in human assessed as occurrence of dermatitis at 750 […], po administered as single dose; format: organism-based; parameters: route oral; conditions: in vivo
[42] = AUC (0 to 24 hrs) in human at 250 mg/kg, po measured on day 10; format: ADME, organism-based; parameters: time < 24 hr, dose 250 mg/kg, route oral; conditions: plasma
[43] = AUC (0 to 24 hrs)in human at 500 mg/kg, po measured on day 10; format: ADME, organism-based; parameters: time < 24 hr, dose 500 mg/kg, route oral; conditions: plasma
[44] = Clearance in human assessed as compound recovered in urine at 1000 […], po measured on day 1 up to 24 hrs post dose; format: ADME, organism-based; parameters: dose 1000 mg/kg, route oral; conditions: read-out: amount in urine
[45] = Renal clearance in human at 75 […], po measured on day 1; format: ADME, organism-based, Kidney; parameters: route oral; conditions: in vivo, read-out: CL_renal (converted)
[46] = Renal clearance in human at 750 […], po measured on day 1; format: ADME, organism-based, Kidney; parameters: route oral; conditions: in vivo, read-out: CL_renal (converted)
[47] = Tmax in human at 250 […], po measured on day 10; format: ADME, organism-based; parameters: dose 250 mg/kg, route oral; conditions: in vivo
[48] = Tmax in human at 500 […], po measured on day 16; format: ADME, organism-based; parameters: dose 500 mg/kg, route oral; conditions: in vivo
[49] = Cmax in human at 500 […], po measured on day 1; format: ADME, organism-based; parameters: dose 500 mg/kg, route oral; conditions: in vivo
[50] = Tmax in human at 75 […], po measured on day 10; format: ADME, organism-based; parameters: dose 75 mg/kg, route oral; conditions: in vivo
[51] = Clearance in human assessed as compound recovered in urine at 750 mg/kg, po measured on day 1 up to 24 hrs post dose; format: ADME, organism-based; parameters: dose 750 mg/kg, route oral; conditions: read-out: amount in urine

With `COc1c(N2C[C@@H](C)C[C@H](N)C2)ccc2c(=O)c(C(=O)O)cn(C3CC3)c12` [NEMONOXACIN] the CL renal [1] was 115 mL/min, the fraction unbound [2] was 0.84 and the AUC(0-t) [3] was 26000 ng·h/mL. For the same molecule, the Ratio [4] was greater than 100, the Cmax [5] was 7750 ng/mL and the dose excreted at 24 h [6] was 49.9%. For the same molecule, the AUC at 24 h [7] was 74800 ng·h/mL, the Activity [8] was 0% and the Cmax [9] was 514 ng/mL. The Activity [10] was 0%, the CL/F [11] was 242 mL/min and the Activity [12] was 0%. For the same molecule, the Activity [13] was 0%, the AUC(0-t) [14] was 59600 ng·h/mL and the AUC(0-t) at 24 h [15] was 3780 ng·h/mL. For the same molecule, the CL/F [16] was 193 mL/min, the Tmax [17] was 1 h and the Tmax [18] was 2 h. For the same molecule, the CL/F [19] was 313 mL/min, the Activity [20] was 0% and the AUC(0-t) at 24 h [21] was 46100 ng·h/mL. The AUC(0-t) [22] was 88300 ng·h/mL, the AUC(0-t) at 24 h [23] was 31600 ng·h/mL and the CL/F [24] was 184 mL/min. For the same molecule, the dose excreted at 24 h [25] was 36.8%, the CL renal [26] was 115 mL/min and the dose excreted at 24 h [27] was 41.8%. For the same molecule, the Activity [28] was 0%, the AUC(0-t) [29] was 5450 ng·h/mL and the CL renal [30] was 129 mL/min. The Activity [31] was 0%, the Tmax [32] was 1.31 h and the half-life [33] was 23 h. It also gave a Tmax [34] of 1.09 h, an Activity [35] of 0% and a CL/F [36] of 189 mL/min. For the same molecule, the Cmax [37] was 5560 ng/mL, the AUC(0-t) [38] was 13700 ng·h/mL and the Activity [39] was 0%. The half-life [40] was 18.6 h, the Activity [41] was 0% and the AUC at 24 h [42] was 16100 ng·h/mL. For the same molecule, the AUC at 24 h [43] was 38600 ng·h/mL, the dose excreted at 24 h [44] was 47.9% and the CL renal [45] was 198 mL/min. The CL renal [46] was 133 mL/min, the Tmax [47] was 1.09 h and the Tmax [48] was 3.07 h. The Cmax [49] was 5120 ng/mL, the Tmax [50] was 0.92 h and the dose excreted at 24 h [51] was 47.1%.

From ChEMBL document CHEMBL1212769, “Multiple-dose safety, tolerability, and pharmacokinetics of oral nemonoxacin (TG-873870) in healthy volunteers” (Antimicrob Agents Chemother, 2010)
